Biological target: FXR (Homo sapiens (Human), UniProt Q96RI1)
Assay: FXR EC50 (FXR agonist activity reported with each example)
Format: cell-based

Chain of FXR (Q96RI1 262-486): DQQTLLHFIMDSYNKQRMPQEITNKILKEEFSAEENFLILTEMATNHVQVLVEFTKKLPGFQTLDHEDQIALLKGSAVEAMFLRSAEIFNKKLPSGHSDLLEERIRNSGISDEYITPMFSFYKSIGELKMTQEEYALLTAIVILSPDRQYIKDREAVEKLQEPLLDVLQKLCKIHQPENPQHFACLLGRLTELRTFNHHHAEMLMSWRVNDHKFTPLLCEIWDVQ

Row | Compound | EC50
1 | COc1ccc(-c2noc(C34CCC(OCc5c(-c6c(Cl)cnn6C)noc5C5CC5)(CC3)CC4)n2)cc1C(=O)O [Example 273, 5-(5-(4-((3-(4-chloro-1-methyl-1H-pyrazol-5-yl)-5-cyclopropylisoxazol-4-yl)methoxy)bicyclo[2.2.2]octan-1-yl)-1,2,4-oxadiazol-3-yl)-2-methoxybenzoic acid] | 3300 nM
2 | O=C(O)c1cccc(C23CCC(COCc4c(-c5c(Cl)cncc5Cl)noc4C4CC4)(CC2)CO3)c1 [Example 511, 3-(4-(((5-cyclopropyl-3-(3,5-dichloropyridin-4-yl)isoxazol-4-yl)methoxy)methyl)-2-oxabicyclo[2.2.2]octan-1-yl)benzoic acid] | 2900 nM
3 | O=C(O)c1cccc(-c2noc(C34CCC(OCc5c(-c6ccccc6OC(F)(F)F)noc5C5CC5)(CC3)CC4)n2)n1 [Example 47] | 550 nM
4 | O=C(O)c1cc(NC(=O)C23CCC(OCc4c(-c5c(Cl)cncc5Cl)noc4C4CC4)(CC2)CC3)cc(C(F)(F)F)c1 [Example 433, 3-(4-((5-cyclopropyl-3-(3,5-dichloropyridin-4-yl)isoxazol-4-yl)methoxy)bicyclo[2.2.2]octane-1-carboxamido)-5-(trifluoromethyl)benzoic acid] | 1300 nM
5 | O=C(O)c1cn(CC23CCC(OCc4c(-c5c(Cl)cccc5Cl)noc4C4CC4)(CC2)CC3)nc1C(F)F [Example 268, 1-((4-((5-cyclopropyl-3-(2,6-dichlorophenyl)isoxazol-4-yl)methoxy)bicyclo[2.2.2]octan-1-yl)methyl)-3-(difluoromethyl)-1H-pyrazole-4-carboxylic acid] | 460 nM
6 | COc1ccc(-c2nc(C34CCC(OCc5c(-c6c(Cl)cncc6Cl)noc5C5CC5)(CC3)CC4)no2)cc1C(=O)O [Example 234, 5-(3-(4-((5-cyclopropyl-3-(3,5-dichloropyridin-4-yl)isoxazol-4-yl)methoxy)bicyclo[2.2.2]octan-1-yl)-1,2,4-oxadiazol-5-yl)-2-methoxybenzoic acid] | 190 nM
7 | O=C(O)c1ccc(C#CC23CCC(OCc4c(-c5c(Cl)cncc5Cl)noc4C4CC4)(CC2)CC3)nn1 [Example 419] | 2000 nM
8 | O=C(O)c1ccc(-c2noc(C34CCC(OCc5c(-c6ccccc6C(F)(F)F)noc5C5CC5)(CC3)CC4)n2)cc1 [Example 29] | 330 nM
9 | O=C(O)c1cc(F)cn2c(C#CC34CCC(OCc5c(-c6c(Cl)cncc6Cl)noc5C5CC5)(CC3)CC4)cnc12 [Example 520, 3-((4-((5-cyclopropyl-3-(3,5-dichloropyridin-4-yl)isoxazol-4-yl)methoxy)bicyclo[2.2.2]octan-1-yl)ethynyl)-6-fluoroimidazo[1,2-a]pyridine-8-carboxylic acid] | 4 nM
10 | COc1cncc(Cl)c1-c1noc(C2CC2)c1COC12CCC(COc3ccc(C)c(C(=O)O)n3)(CC1)CC2 [Example 120, 6-((4-((3-(3-chloro-5-methoxypyridin-4-yl)-5-cyclopropylisoxazol-4-yl)methoxy)bicyclo[2.2.2]octan-1-yl)methoxy)-3-methylpicolinic acid] | 2300 nM
11 | O=C(O)c1cc(C(F)(F)F)c2nc(C34CCC(OCc5c(-c6c(Cl)cncc6Cl)noc5C5CC5)(CC3)CC4)ccc2c1 [Example 370] | 56 nM
12 | CC(Oc1ccc(OCC23CCC(OCc4c(-c5c(Cl)cncc5Cl)noc4C4CC4)(CC2)CC3)cc1)C(=O)O (stereo not drawn) [Example 341] | 1500 nM
13 | O=C(O)c1cccc(OCC23CCC(OCc4c(-c5c(Cl)cncc5Cl)noc4C4CC4)(CC2)CC3)n1 [Example 113, 6-((4-((5-cyclopropyl-3-(3,5-dichloropyridin-4-yl)isoxazol-4-yl)methoxy)bicyclo[2.2.2]octan-1-yl)methoxy)picolinic acid] | 92 nM
14 | CC(C)Oc1cc(C(=O)O)cc(-c2noc(C34CCC(OCc5c(-c6c(Cl)cncc6Cl)noc5C5CC5)(CC3)CC4)n2)c1 [Example 251, 3-(5-(4-((5-cyclopropyl-3-(3,5-dichloropyridin-4-yl)isoxazol-4-yl)methoxy)bicyclo[2.2.2]octan-1-yl)-1,2,4-oxadiazol-3-yl)-5-isopropoxybenzoic acid] | 16 nM
15 | NC(=O)c1cc(C(F)(F)F)c2cc(OCC34CCC(OCc5c(-c6c(Cl)cncc6Cl)noc5C5CC5)(CC3)CC4)ccc2n1 [Example 291, 6-((4-((5-cyclopropyl-3-(3,5-dichloropyridin-4-yl)isoxazol-4-yl)methoxy)bicyclo[2.2.2]octan-1-yl)methoxy)-4-(trifluoromethyl)quinoline-2-carboxamide] | 230 nM
16 | O=C(O)c1cccc(-c2nnc(C34CCC(OCc5c(-c6ccccc6OC(F)(F)F)noc5C5CC5)(CC3)CC4)o2)c1 [Example 18, 3-(5-(4-((5-cyclopropyl-3-(2-(trifluoromethoxy)phenyl)isoxazol-4-yl)methoxy)bicyclo[2.2.2]octan-1-yl)-1,3,4-oxadiazol-2-yl)benzoic acid] | 1100 nM
17 | O=C(O)c1cc(F)c2nc(C34CCC(OCc5c(-c6ccccc6OC(F)(F)F)noc5C5CC5)(CC3)CC4)sc2c1 [Example 15, 2-(4-((5-cyclopropyl-3-(2-(trifluoromethoxy)phenyl)isoxazol-4-yl)methoxy)bicyclo[2.2.2]octan-1-yl)-4-fluorobenzo[d]thiazole-6-carboxylic acid] | 210 nM

Row | Compound | EC50
18 | O=C(O)c1cccc2nc(C34CCC(CCc5c(-c6ccccc6OC(F)(F)F)noc5C5CC5)(CC3)CC4)sc12 [Example 456, 2-(4-(2-(5-cyclopropyl-3-(2-(trifluoromethoxy)phenyl)isoxazol-4-yl)ethyl)bicyclo[2.2.2]octan-1-yl)benzo[d]thiazole-7-carboxylic acid] | 22 nM
19 | O=C(O)c1c(F)ccc(-c2noc(C34CCC(OCc5c(-c6c(Cl)cccc6Cl)noc5C5CC5)(CC3)CC4)n2)c1F [Example 68, 3-(5-(4-((5-Cyclopropyl-3-(2,6-dichlorophenyl)isoxazol-4-yl)methoxy)bicyclo[2.2.2]octan-1-yl)-1,2,4-oxadiazol-3-yl)-2,6-difluorobenzoic acid] | 250 nM
20 | COc1ccc(C(=O)O)c2ccc(OCC34CCC(OCc5c(-c6c(Cl)cncc6Cl)noc5C5CC5)(CC3)CC4)nc12 [Example 342] | 33 nM
21 | O=C(O)c1cc(-c2noc(C34CCC(/C=C/c5c(-c6c(Cl)cncc6Cl)noc5C5CC5)(CC3)OC4)n2)cc(C(F)(F)F)c1 [Example 494, (E)-3-(5-(1-(2-(5-cyclopropyl-3-(3,5-dichloropyridin-4-yl)isoxazol-4-yl)vinyl)-2-oxabicyclo[2.2.2]octan-4-yl)-1,2,4-oxadiazol-3-yl)-5-(trifluoromethyl)benzoic acid] | 130 nM
22 | COc1c(C(=O)O)cccc1-c1noc(C23CCC(OCc4c(-c5c(Cl)cncc5Cl)noc4C4CC4)(CC2)CC3)n1 [Example 237, 3-(5-(4-((5-cyclopropyl-3-(3,5-dichloropyridin-4-yl)isoxazol-4-yl)methoxy)bicyclo[2.2.2]octan-1-yl)-1,2,4-oxadiazol-3-yl)-2-methoxybenzoic acid] | 27 nM
23 | O=C(O)c1ccc(O)c2nc(C34CCC(OCc5c(-c6c(Cl)cncc6Cl)noc5C5CC5)(CC3)CC4)ccc12 [Example 407] | 19 nM
24 | O=C(O)c1csc(C23CCC(COCc4c(-c5ccccc5OC(F)(F)F)noc4C4CC4)(CC2)CO3)n1 [Example 214] | 1400 nM
25 | O=C(O)c1ccnc(-c2noc(C34CCC(OCc5c(-c6c(Cl)cccc6Cl)noc5C5CC5)(CC3)CC4)n2)c1 [Example 10, 2-(5-(4-((5-cyclopropyl-3-(2,6-dichlorophenyl)isoxazol-4-yl)methoxy)bicyclo[2.2.2]octan-1-yl)-1,2,4-oxadiazol-3-yl)isonicotinic acid] | 2700 nM
26 | COc1cc(-c2noc(C34CCC(OCc5c(-c6c(Cl)cncc6Cl)noc5C5CC5)(CC3)CC4)n2)cc(C(=O)O)c1F [Example 241, 5-(5-(4-((5-cyclopropyl-3-(3,5-dichloropyridin-4-yl)isoxazol-4-yl)methoxy)bicyclo[2.2.2]octan-1-yl)-1,2,4-oxadiazol-3-yl)-2-fluoro-3-methoxybenzoic acid] | 130 nM
27 | COc1nc(C(=O)O)cc2ccc(C#CC34CCC(OCc5c(-c6c(Cl)cncc6Cl)noc5C5CC5)(CC3)CC4)cc12 [Example 521, 7-((4-((5-cyclopropyl-3-(3,5-dichloropyridin-4-yl)isoxazol-4-yl)methoxy)bicyclo[2.2.2]octan-1-yl)ethynyl)-1-methoxyisoquinoline-3-carboxylic acid] | 40 nM
28 | O=C(O)c1cccc2nc(C34CCC(OCc5c(-c6c(Cl)cncc6Cl)noc5C5CC5)(CC3)CC4)ccc12 [Example 368] | 36 nM
29 | Oc1ccc(-c2noc(C34CCC(OCc5c(-c6c(Cl)cncc6Cl)noc5C5CC5)(CC3)CC4)n2)cc1-c1nnn[nH]1 [Example 242, 4-(5-(4-((5-cyclopropyl-3-(3,5-dichloropyridin-4-yl)isoxazol-4-yl)methoxy)bicyclo[2.2.2]octan-1-yl)-1,2,4-oxadiazol-3-yl)-2-(1H-tetrazol-5-yl)phenol] | 1400 nM
30 | O=C(O)c1cnc(OCC23CCC(OCc4c(-c5c(Cl)cncc5Cl)noc4C4CC4)(CC2)CC3)c(C(F)(F)F)c1 [Example 279, 6-((4-((5-cyclopropyl-3-(3,5-dichloropyridin-4-yl)isoxazol-4-yl)methoxy)bicyclo[2.2.2]octan-1-yl)methoxy)-5-(trifluoromethyl)nicotinic acid] | 190 nM
31 | O=C(O)c1cc(C(F)(F)F)cc(OCC23CCC(OCc4c(-c5c(Cl)cncc5Cl)noc4C4CC4)(CC2)CC3)n1 [Example 280, 6-((4-((5-cyclopropyl-3-(3,5-dichloropyridin-4-yl)isoxazol-4-yl)methoxy)bicyclo[2.2.2]octan-1-yl)methoxy)-4-(trifluoromethyl)picolinic acid] | 23 nM
32 | O=C(O)c1cccc2nc(C34CCC(C=Cc5c(-c6ccccc6OC(F)(F)F)noc5C5CC5)(CC3)CC4)sc12 [Example 186] | 67 nM
33 | O=C(O)c1ccc(C23CCC(COCc4c(-c5c(Cl)cccc5Cl)noc4C4CC4)(CC2)CC3)cc1 [Example 174, 4-(4-(((5-cyclopropyl-3-(2,6-dichlorophenyl)isoxazol-4-yl)methoxy)methyl)bicyclo[2.2.2]octan-1-yl)benzoic acid] | 210 nM

From patent publication US10730863B2, “Bridged bicyclic compounds as farnesoid X receptor modulators” (BRISTOL-MYERS SQUIBB COMPANY, priority 2017, dated 2020)
